{"source": "patent US20230225324A1", "about": "“Synergistic Pesticidal Composition Against Sucking Pests Complex” (priority 2020, published 2023)", "key": {"White fly": {"test_system": "White fly", "assay": "Synergistic insecticidal effect of the combination, mortality of White fly (Table 2)", "assay_type": "in vivo", "excerpt": "(§1) Evaluation of the synergistic insecticidal effect of the composition comprising Diafenthiuron, Pyriproxyfen and an insecticide Dinotefuran can be established by using any synergistic insecticidal composition prepared by the process described in the above examples. For these evaluations one or more of the synergistic insecticidal compositions prepared in the examples are used here.\n(§2) Synergism can be calculated by using the Colby's method i.e. the expected (or predicted) response of the combination is calculated by taking the product of the observed response for each individual component of the combination when applied alone divided by 100 and subtracting this value from the sum of observed response for each component when applied alone. Synergism of the combination is then determined by comparing the observed response of the combination to the expected (or predicted) response as calculated from the observed response of each individual component alone. If the observed response of the combination is greater than the expected (or predicted) response then the combination is said to be synergistic and falls within the definition of synergistic effect. (Colby, S. R., Weeds, 1967(15), p. 20-22)."}, "Jassids": {"test_system": "Jassids", "assay": "Synergistic insecticidal effect of the combination, mortality of Jassids (Table 3)", "assay_type": "in vivo", "excerpt": "as §1, §2"}}, "data": [{"smiles": "CC(COc1ccc(Oc2ccccc2)cc1)Oc1ccccn1", "note": "(racemic) [Pyriproxyfen, 4-phenoxyphenyl (RS)-2-(2-pyridyloxy)propyl ether]", "values": [{"measurement": "Observed Mortality %", "setting": "White fly; Pyriproxyfen 72 ppm", "result": 30.70, "unit": "%"}, {"measurement": "Observed Mortality %", "setting": "White fly; Pyriproxyfen 96 ppm", "result": 38.10, "unit": "%"}, {"measurement": "Observed Mortality %", "setting": "White fly; Pyriproxyfen 120 ppm", "result": 43.70, "unit": "%"}, {"measurement": "Observed Mortality %", "setting": "White fly; Pyriproxyfen 144 ppm", "result": 46.60, "unit": "%"}, {"measurement": "Observed Mortality %", "setting": "Jassids; Pyriproxyfen 72 ppm", "result": 21.70, "unit": "%"}, {"measurement": "Observed Mortality %", "setting": "Jassids; Pyriproxyfen 96 ppm", "result": 29.20, "unit": "%"}, {"measurement": "Observed Mortality %", "setting": "Jassids; Pyriproxyfen 120 ppm", "result": 35.50, "unit": "%"}, {"measurement": "Observed Mortality %", "setting": "Jassids; Pyriproxyfen 144 ppm", "result": 37.90, "unit": "%"}]}, {"smiles": "CN/C(=N/CC1CCOC1)N[N+](=O)[O-]", "note": "(stereo not drawn) [Dinotefuran, 2-methyl-1-nitro-3-[(tetrahydro-3-furanyl)methyl]guanidine]", "values": [{"measurement": "Observed Mortality %", "setting": "White fly; Dinotefuran 45 ppm", "result": 35.10, "unit": "%"}, {"measurement": "Observed Mortality %", "setting": "White fly; Dinotefuran 60 ppm", "result": 45.50, "unit": "%"}, {"measurement": "Observed Mortality %", "setting": "White fly; Dinotefuran 75 ppm", "result": 52.00, "unit": "%"}, {"measurement": "Observed Mortality %", "setting": "White fly; Dinotefuran 90 ppm", "result": 61.40, "unit": "%"}, {"measurement": "Observed Mortality %", "setting": "Jassids; Dinotefuran 45 ppm", "result": 65.60, "unit": "%"}, {"measurement": "Observed Mortality %", "setting": "Jassids; Dinotefuran 60 ppm", "result": 73.40, "unit": "%"}, {"measurement": "Observed Mortality %", "setting": "Jassids; Dinotefuran 75 ppm", "result": 79.00, "unit": "%"}, {"measurement": "Observed Mortality %", "setting": "Jassids; Dinotefuran 90 ppm", "result": 83.80, "unit": "%"}]}, {"smiles": "CC(C)c1cc(Oc2ccccc2)cc(C(C)C)c1NC(=S)NC(C)(C)C", "note": "[Diafenthiuron, 1-tert-butyl-3-(2,6-di-isopropyl-4-phenoxyphenyl)thiourea]", "values": [{"measurement": "Observed Mortality %", "setting": "White fly; Diafenthiuron 120 ppm", "result": 38.40, "unit": "%"}, {"measurement": "Observed Mortality %", "setting": "White fly; Diafenthiuron 240 ppm", "result": 48.50, "unit": "%"}, {"measurement": "Observed Mortality %", "setting": "White fly; Diafenthiuron 360 ppm", "result": 57.30, "unit": "%"}, {"measurement": "Observed Mortality %", "setting": "White fly; Diafenthiuron 480 ppm", "result": 61.80, "unit": "%"}, {"measurement": "Observed Mortality %", "setting": "Jassids; Diafenthiuron 120 ppm", "result": 28.90, "unit": "%"}, {"measurement": "Observed Mortality %", "setting": "Jassids; Diafenthiuron 240 ppm", "result": 42.00, "unit": "%"}, {"measurement": "Observed Mortality %", "setting": "Jassids; Diafenthiuron 360 ppm", "result": 48.50, "unit": "%"}, {"measurement": "Observed Mortality %", "setting": "Jassids; Diafenthiuron 480 ppm", "result": 57.40, "unit": "%"}]}]}
